This is an account of results in patent US9776990B2, “Isoindolone derivatives” (AbbVie Inc., priority 2012, dated 2017).

As usually defined, the Ki is the dissociation constant of the complex between target and ligand, obtained from inhibition or displacement. A low value points to higher affinity.

In one assay the target is BRD4 (BDII_E352-M457) (Homo sapiens (Human), UniProt O60885). The assay is described as follows: TR-FRET bromodomain binding assay, BRD4 second bromodomain. As to conditions: His-tagged BD2, 30 nM Alexa647 probe. On the procedure: (§1) A time-resolved fluorescence resonance energy transfer (TR-FRET) assay was used to determine the affinities of compounds of the Examples listed in Table 1 for each bromodomain of BRD4. His-tagged first (BD1: amino acids K57-E168) and second (BD2: amino acids E352-E168) bromodomains of BRD4 were expressed and purified. An Alexa647-labeled BET-inhibitor was used as the fluorescent probe in the assay.
(§2) Compound dilution series were prepared in DMSO via a 3-fold serial dilution from 2.5 mM to 42 nM. Compounds were then diluted 6:100 in assay buffer (20 mM Sodium Phosphate, pH 6.0, 50 mM NaCl, 1 mM EDTA, 0.01% Triton X-100, 1 mM DTT) to yield 3× working solutions. Six microliters (μL) of the working solution was then transferred to white, low-volume assay plates (Costar #3673). A 1.5× assay mixture containing His-tagged bromodomain, Europium-conjugated anti-His antibody (Invitrogen PV5596) and the Alexa-647-conjugated probe molecule was also prepared. Twelve μL of this solution were added to the assay plate to reach a final volume of 18 μL. The final concentration of 1× assay buffer contains 2% DMSO, 50 μM−0.85 nM compound, 8 nM bromodomain, 1 nM antibody and 100 or 30 nM probe (for BDI or BDII, respectively). After a one-hour incubation at room temperature, TR-FRET ratios were determined using an Envision multilabel plate reader (Ex 340, Em 495/520).
(§3) TR-FRET data were normalized to the means of 24 no-compound controls (“high”) and 8 controls containing 1 μM un-labeled probe (“low”). Percent inhibition was plotted as a function of compound concentration and the data were fit with the 4 parameter logistic equation to obtain IC50s Inhibition constants (Ki) were calculated from the IC50s, probe Kd and probe concentration. Typical Z′ values were between 0.65 and 0.75. The minimum significant ratio was determined to evaluate assay reproducibility (Eastwood et al., (2006) J Biomol Screen, 11: 253-261). The MSR was determined to be 2.03 for BDI and 1.93 for BDII, and a moving MSR (last six run MSR overtime) for both BDI and BDII was typically <3.
On the technique in general: Time-resolved FRET reads energy transfer from a long-lived donor to a nearby acceptor.

The next assay concerns the target BRD4 (BDI_K57-E168) (Homo sapiens (Human), UniProt O60885). The assay is described as follows: TR-FRET bromodomain binding assay, BRD4 first bromodomain. As to conditions: His-tagged BD1, 100 nM Alexa647 probe. On the procedure:
as §1, §2, §3

“3-methyl-6-(2-methylpropyl)-1-(2-phenoxyphenyl)-2,5,6,7-tetrahydro-4H-isoindol-4-one [Example 68]”: the results for the Ki on BRD4 (BDII_E352-M457) and on BRD4 (BDI_K57-E168) were 22.2 µM and 3.62 µM, respectively.

`Cc1[nH]c(-c2ccccc2Oc2ccccc2)c2c1C(=O)CCC2` [Example 2, 3-methyl-1-(2-phenoxyphenyl)-2,5,6,7-tetrahydro-4H-isoindol-4-one]: the figures for the Ki at BRD4 (BDII_E352-M457) and at BRD4 (BDI_K57-E168) were 0.504 µM and 0.255 µM, respectively.

As to `Cc1[nH]c(-c2ccccc2N)c2c1C(=O)CCC2` [Example 3, 1-(2-aminophenyl)-3-methyl-2,5,6,7-tetrahydro-4H-isoindol-4-one], the figures for the Ki at BRD4 (BDII_E352-M457) and at BRD4 (BDI_K57-E168) were 15 µM and 3.73 µM, respectively.

With `Cc1ccc(-c2[nH]c(C)c3c2CCCC3=O)cc1` [Example 4, 3-methyl-1-(4-methylphenyl)-2,5,6,7-tetrahydro-4H-isoindol-4-one], the figures for the Ki at BRD4 (BDII_E352-M457) and on BRD4 (BDI_K57-E168) were 15.9 µM and 2.49 µM, respectively.

Regarding `COc1ccccc1-c1[nH]c(C)c2c1CCCC2=O` [Example 6, 1-(2-methoxyphenyl)-3-methyl-2,5,6,7-tetrahydro-4H-isoindol-4-one], the Ki on BRD4 (BDII_E352-M457) was 9.97 µM; on BRD4 (BDI_K57-E168), 2.7 µM.

Take `COc1ccc(-c2[nH]c(C)c3c2CCCC3=O)cc1` [Example 11, 1-(4-methoxyphenyl)-3-methyl-2,5,6,7-tetrahydro-4H-isoindol-4-one]: the inhibitory constant (Ki) on BRD4 (BDII_E352-M457) was determined as 5.46 µM; at BRD4 (BDI_K57-E168), 1.88 µM.

In the case of `Cc1ccc(-c2[nH]c(C)c3c2CCCC3=O)cc1C` [Example 12, 1-(3,4-dimethylphenyl)-3-methyl-2,5,6,7-tetrahydro-4H-isoindol-4-one], the Ki on BRD4 (BDII_E352-M457) turned out to be 10.4 µM; at BRD4 (BDI_K57-E168) it was 2.86 µM.

As for `Cc1[nH]c(-c2ccc(Cl)cc2)c2c1C(=O)CCC2` [Example 13, 1-(4-chlorophenyl)-3-methyl-2,5,6,7-tetrahydro-4H-isoindol-4-one], the Ki at BRD4 (BDII_E352-M457) was found to be 22.2 µM; on BRD4 (BDI_K57-E168), 7.29 µM.

As for `Cc1[nH]c(-c2cccc(OCc3ccccc3)c2)c2c1C(=O)CCC2` [Example 14, 1-[3-(benzyloxy)phenyl]-3-methyl-2,5,6,7-tetrahydro-4H-isoindol-4-one], the Ki worked out at 22.2 µM on BRD4 (BDII_E352-M457) and 9.06 µM at BRD4 (BDI_K57-E168).

As to `Cc1[nH]c(-c2ccccc2Cl)c2c1C(=O)CCC2` [Example 15, 1-(2-chlorophenyl)-3-methyl-2,5,6,7-tetrahydro-4H-isoindol-4-one], the Ki on BRD4 (BDII_E352-M457) stood at 22.2 µM; at BRD4 (BDI_K57-E168) it was 1.14 µM.

Regarding `Cc1[nH]c(-c2ccc3c(c2)OCO3)c2c1C(=O)CCC2` [Example 16, 1-(1,3-benzodioxol-5-yl)-3-methyl-2,5,6,7-tetrahydro-4H-isoindol-4-one], the results for the Ki on BRD4 (BDII_E352-M457) and on BRD4 (BDI_K57-E168) were 8.42 µM and 3.77 µM, respectively.

In the case of `Cc1cc(C)cc(-c2[nH]c(C)c3c2CCCC3=O)c1` [Example 17, 1-(3,5-dimethylphenyl)-3-methyl-2,5,6,7-tetrahydro-4H-isoindol-4-one], the Ki on BRD4 (BDII_E352-M457) was 17.5 µM; on BRD4 (BDI_K57-E168), 5.51 µM.

Regarding `COc1cccc(-c2[nH]c(C)c3c2CCCC3=O)c1` [Example 20, 1-(3-methoxyphenyl)-3-methyl-2,5,6,7-tetrahydro-4H-isoindol-4-one], the results for the Ki at BRD4 (BDII_E352-M457) and at BRD4 (BDI_K57-E168) were 4.49 µM and 1.77 µM, respectively.

Turning to `Cc1[nH]c(-c2cccc3[nH]cnc23)c2c1C(=O)CCC2` [Example 21, 1-(1H-benzimidazol-4-yl)-3-methyl-2,5,6,7-tetrahydro-4H-isoindol-4-one], the Ki on BRD4 (BDII_E352-M457) amounted to 5.92 µM; at BRD4 (BDI_K57-E168) it was 1.86 µM.

Take `Cc1[nH]c(-c2cccc3cc[nH]c23)c2c1C(=O)CCC2` [Example 22, 1-(1H-indol-7-yl)-3-methyl-2,5,6,7-tetrahydro-4H-isoindol-4-one]: the Ki on BRD4 (BDII_E352-M457) amounted to 8.21 µM; at BRD4 (BDI_K57-E168) it was 2.47 µM.

`Cc1[nH]c(-c2ccccc2COc2cccc(C(F)(F)F)c2)c2c1C(=O)CCC2` [Example 23, 3-methyl-1-(2-{[3-(trifluoromethyl)phenoxy]methyl}phenyl)-2,5,6,7-tetrahydro-4H-isoindol-4-one]: the Ki on BRD4 (BDII_E352-M457) is 8.92 µM; on BRD4 (BDI_K57-E168), 9.09 µM.

In the case of `Cc1[nH]c(-c2ccccc2COc2ccccc2)c2c1C(=O)CCC2` [Example 24, 3-methyl-1-[2-(phenoxymethyl)phenyl]-2,5,6,7-tetrahydro-4H-isoindol-4-one], the Ki on BRD4 (BDII_E352-M457) amounted to 2.3 µM; on BRD4 (BDI_K57-E168), 1.2 µM.

In the case of `Cc1ccccc1OCc1ccccc1-c1[nH]c(C)c2c1CCCC2=O` [Example 25, 3-methyl-1-{2-[(2-methylphenoxy)methyl]phenyl}-2,5,6,7-tetrahydro-4H-isoindol-4-one], the Ki on BRD4 (BDII_E352-M457) was determined as 15.1 µM; on BRD4 (BDI_K57-E168), 4.24 µM.

On to `Cc1[nH]c(-c2ccccc2-c2ccco2)c2c1C(=O)CCC2` [Example 27, 1-[2-(furan-2-yl)phenyl]-3-methyl-2,5,6,7-tetrahydro-4H-isoindol-4-one], for which the Ki at BRD4 (BDII_E352-M457) came to 6.58 µM; on BRD4 (BDI_K57-E168), 2.76 µM.

Turning to `Cc1[nH]c(-c2ccccc2O)c2c1C(=O)CCC2` [Example 28, 1-(2-hydroxyphenyl)-3-methyl-2,5,6,7-tetrahydro-4H-isoindol-4-one], the Ki on BRD4 (BDII_E352-M457) stood at 15.1 µM; at BRD4 (BDI_K57-E168), 5.31 µM.

As for `Cc1[nH]c(-c2ccccc2OCC2CCCC2)c2c1C(=O)CCC2` [Example 30, 1-[2-(cyclopentylmethoxy)phenyl]-3-methyl-2,5,6,7-tetrahydro-4H-isoindol-4-one], the Ki on BRD4 (BDII_E352-M457) was 4.78 µM; on BRD4 (BDI_K57-E168), 1.25 µM.

On to `Cc1[nH]c(-c2ccccc2OCc2cccc3cccnc23)c2c1C(=O)CCC2` [Example 35, 3-methyl-1-[2-(quinolin-8-ylmethoxy)phenyl]-2,5,6,7-tetrahydro-4H-isoindol-4-one], for which the inhibition constant Ki at BRD4 (BDII_E352-M457) came out at 11 µM; on BRD4 (BDI_K57-E168) it was 9.14 µM.

In the case of `Cc1[nH]c(-c2ccccc2OCc2cccc3ccsc23)c2c1C(=O)CCC2` [Example 36, 1-[2-(1-benzothiophen-7-ylmethoxy)phenyl]-3-methyl-2,5,6,7-tetrahydro-4H-isoindol-4-one], the Ki at BRD4 (BDII_E352-M457) came to 9.73 µM; on BRD4 (BDI_K57-E168), 8.83 µM.

Regarding `Cc1[nH]c(-c2ccccc2OCc2ccc3[nH]ncc3c2)c2c1C(=O)CCC2` [Example 38, 1-[2-(1H-indazol-5-ylmethoxy)phenyl]-3-methyl-2,5,6,7-tetrahydro-4H-isoindol-4-one], the Ki on BRD4 (BDII_E352-M457) was determined as 4.86 µM; on BRD4 (BDI_K57-E168), 4.88 µM.

Turning to `Cc1[nH]c(-c2cc(NS(C)(=O)=O)ccc2Oc2ccc(F)cc2F)c2c1C(=O)CCC2` [Example 46, N-[4-(2,4-difluorophenoxy)-3-(3-methyl-4-oxo-4,5,6,7-tetrahydro-2H-isoindol-1-yl)phenyl]methanesulfonamide], the Ki at BRD4 (BDII_E352-M457) was 0.052 µM; at BRD4 (BDI_K57-E168), 0.014 µM.

`Cc1[nH]c(-c2cc(NC(=O)c3ccc[nH]3)ccc2Oc2ccc(F)cc2F)c2c1C(=O)CCC2` [Example 51, N-[4-(2,4-difluorophenoxy)-3-(3-methyl-4-oxo-4,5,6,7-tetrahydro-2H-isoindol-1-yl)phenyl]-1H-pyrrole-2-carboxamide]: the Ki came to 0.943 µM on BRD4 (BDII_E352-M457) and 0.164 µM on BRD4 (BDI_K57-E168).

Consider `COC(=O)c1ccc(Oc2ccccc2)c(-c2[nH]c(C)c3c2CCCC3=O)c1` [Example 53, methyl 3-(3-methyl-4-oxo-4,5,6,7-tetrahydro-2H-isoindol-1-yl)-4-phenoxybenzoate], for which the Ki at BRD4 (BDII_E352-M457) is 3.67 µM; on BRD4 (BDI_K57-E168), 0.927 µM.

On to `Cc1[nH]c(-c2cc(C(=O)O)ccc2Oc2ccccc2)c2c1C(=O)CCC2` [Example 54, 3-(3-methyl-4-oxo-4,5,6,7-tetrahydro-2H-isoindol-1-yl)-4-phenoxybenzoic Acid], for which the Ki at BRD4 (BDII_E352-M457) is 0.289 µM; at BRD4 (BDI_K57-E168), 0.045 µM.

With `Cc1[nH]c(-c2cc(C(=O)Nc3nccs3)ccc2Oc2ccccc2)c2c1C(=O)CCC2` [Example 57, 3-(3-methyl-4-oxo-4,5,6,7-tetrahydro-2H-isoindol-1-yl)-4-phenoxy-N-(1,3-thiazol-2-yl)benzamide], the Ki on BRD4 (BDII_E352-M457) was found to be 22.2 µM; on BRD4 (BDI_K57-E168), 1.07 µM.

Turning to `Cc1[nH]c(-c2ccc3c(c2)OCO3)c2c1C(=O)CC(C)(C)C2` [Example 58, 1-(1,3-benzodioxol-5-yl)-3,6,6-trimethyl-2,5,6,7-tetrahydro-4H-isoindol-4-one], the Ki on BRD4 (BDII_E352-M457) was found to be 0.513 µM; on BRD4 (BDI_K57-E168), 0.932 µM.

Consider `Cc1[nH]c(-c2ccccc2)c2c1C(=O)CC(C)(C)C2` [Example 59, 3,6,6-trimethyl-1-phenyl-2,5,6,7-tetrahydro-4H-isoindol-4-one], for which the Ki at BRD4 (BDII_E352-M457) came out at 2.52 µM; on BRD4 (BDI_K57-E168) it was 3.23 µM.

Regarding `Cc1ccc(C)c(-c2[nH]c(C)c3c2CC(C)(C)CC3=O)c1` [Example 60, 1-(2,5-dimethylphenyl)-3,6,6-trimethyl-2,5,6,7-tetrahydro-4H-isoindol-4-one], the Ki at BRD4 (BDII_E352-M457) is 2.7 µM; on BRD4 (BDI_K57-E168), 3.37 µM.
